{
  "source": "patent US9226912B2",
  "about": "“Acetyltanshinone IIA (ATA) as anticancer agent” (Nanyang Technological University, priority 2011, dated 2016)",
  "key": {"MDA-MB-435": {"system": "MDA-MB-435", "assay": "IC50 and LC50 of ATA at 48 h", "type": "cell-based", "conditions": "Homo sapiens, MDA-MB-435 melanoma"}, "[1]": {"assay": "IC50 and LC50 of ATA at 48 h", "type": "cell-based", "conditions": "human, MCF-10A cells (non-cancer breast cell line), MCF-10A non-cancer breast cell line"}, "MCF-10A": {"system": "MCF-10A", "assay": "IC50 and LC50 of ATA at 48 h", "type": "cell-based", "conditions": "Homo sapiens, MCF-10A non-cancer breast cell line"}, "T47D": {"system": "T47D", "assay": "Growth inhibition at 72 h by MTT assay", "type": "cell-based", "conditions": "T47D (ER+)"}, "MCF-7/HER2 cells": {"system": "MCF-7/HER2 cells", "assay": "Growth inhibition of HER2 over-expressing cells at 72 h", "type": "cell-based", "description": "The efficacy of ATA on MCF-7 cells with over-expressed HER2 protein was investigated."}, "[2]": {"system": "Bax and cytochrome c in MDA-MB-435 cells", "assay": "Bax translocation and cytochrome c release, cell fractionation Western blot and immunofluorescence", "type": "cell-based, human", "conditions": "5 μM ATA, 24 h, normalized to control 1.0", "description": "The concentration of ATA and PG were 5 μM and 20 μM, respectively. […] Scale bar=10 μm.\nThe value of CY/MT represents the ratio of integrated band intensity of cytosol fraction (CY) over corresponding integrated band intensity of mitochondrial fraction (MT). The ratio was normalized by the control group. Two proteins were used as internal markers to judge the quality of cell fractionation experiment: Cox IV for mitochondria and β-tubulin mainly for cytosol.\nThe subcellular localization changes of Bax and cytochrome c during ATA-induced apoptosis were first examined using immunofluorescence staining.\nIt was further tested, whether PG could prevent ROS generation after ATA treatment."}, "MDA-MB-435 cells": {"system": "MDA-MB-435 cells", "assay": "cells", "type": "cell-based", "conditions": "Homo sapiens, MDA-MB-435, 24 h, read-out: cell viability", "description": "(A) ROS generation in various cancer cell lines was detected using H2DCFDA after 10 μM ATA treatment for 2 h. The number indicates the fold of increase in ROS level compared to control. (B) Antioxidant prevented ATA-induced MDA-MB-435 cell death. Various antioxidants at the indicated concentration were tested for their protective effects against ATA-induced MDA-MB-435 cell death. Cells were first pre-treated with each antioxidant for 1 h and then ATA was added into the culture medium in the presence of antioxidants. The cell viability was measured by sulforhodamine B (SRB) colorimetric assay for cytotoxicity determination (* p<0.01).\n(A) PG prevented ATA-induced cell death. Three concentrations of PG were tested for their protective effects on ATA-induced cell death. The cell viability was measured by SRB assay. (* p<0.01). (B) PG protected ROS generation caused by ATA treatment. […] All the experiments were performed at least three times. The results presented in this figure are the average of three experiments. […]\nSince the generation of ROS was detected in all six examined cell lines and it occurred only 2 h after ATA addition, which was at least 4-6 h ahead of Bax translocation, it was speculated that ATA-mediated ROS generation might be the cause for cell death. […] The percentage of cell death after 24 h of ATA treatment was measured using SRB cytotoxicity assay."}, "ERα in MCF-7 cells": {"molecular_target": "T1, ERα in MCF-7 cells (Homo sapiens, UniProt P03372)", "T1 construct": "endogenous in cells; host or cells: MCF-7 human breast cancer cells", "T1 sequence (P03372 1-595)": "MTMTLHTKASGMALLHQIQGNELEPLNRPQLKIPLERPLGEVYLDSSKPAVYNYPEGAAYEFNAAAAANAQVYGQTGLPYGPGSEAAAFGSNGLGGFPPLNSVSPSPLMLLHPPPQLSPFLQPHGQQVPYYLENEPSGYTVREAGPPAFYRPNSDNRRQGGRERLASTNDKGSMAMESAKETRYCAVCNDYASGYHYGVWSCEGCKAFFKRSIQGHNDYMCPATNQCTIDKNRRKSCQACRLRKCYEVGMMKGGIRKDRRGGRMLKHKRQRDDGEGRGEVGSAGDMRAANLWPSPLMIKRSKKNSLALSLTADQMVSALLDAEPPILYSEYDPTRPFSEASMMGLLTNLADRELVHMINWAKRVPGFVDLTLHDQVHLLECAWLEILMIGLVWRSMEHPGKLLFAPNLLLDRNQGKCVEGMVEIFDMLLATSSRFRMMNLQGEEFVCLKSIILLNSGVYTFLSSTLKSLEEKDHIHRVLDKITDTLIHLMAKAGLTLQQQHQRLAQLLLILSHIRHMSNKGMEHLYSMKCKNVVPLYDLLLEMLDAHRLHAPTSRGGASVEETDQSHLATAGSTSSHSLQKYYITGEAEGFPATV", "assay": "ERα protein level by immunostaining and Western blot", "type": "cell-based", "description": "(B) Western blot analysis of ERα levels in normal medium-cultured MCF-7 cells at different times with 6 μM ATA treatment.\nThus, immunostaining was used to exam the protein level of ERα in MCF-7 cells after ATA treatment. It was observed that ERα was mainly localized in the nucleus (FIG. 6A) in the control cells, which had been cultured in the charcoal-stripped medium for 4 days.\nSubsequently, Western blot analysis was used to confirm this prediction. […] To ensure that ATA produced a similar effect in the MCF-7 cells under a physiological condition, Western blotting was used to determine the protein level of ERα in normal medium-cultured MCF-7 cells with or without ATA treatment."}, "[3]": {"system": "HER2 protein in BT474 cells", "assay": "HER2 protein level by Western blotting", "type": "cell-based, human", "conditions": "6 μM ATA or 1 μM fulvestrant", "description": "Cells were treated with 6 μM ATA or 1 μM fulvestrant for indicated times and analyzed by Western blotting."}, "ESR1 mRNA in MCF-7 cells": {"system": "ESR1 mRNA in MCF-7 cells", "assay": "Real-time PCR of ESR1 mRNA level", "conditions": "100 pM estrogen plus 6 μM compound", "method": "MCF-7 cells cultured in the charcoal-stripped medium were used as control for the 0 h sample."}, "[4]": {"system": "GREB1 mRNA in MCF-7 cells", "assay": "Real-time PCR of GREB1 mRNA level", "conditions": "for GREB1 mRNA level, fold of the control: 100 pM estrogen plus 6 μM ATA, charcoal-stripped medium", "method": "In order to do so, the mRNA level of a non-ER regulated gene GAPDH was measured and used as a reference. MCF-7 cells cultured in the charcoal-stripped medium were used as a control."}, "[5]": {"conditions": "6 μM ATA, 3 h, charcoal-stripped medium, immunostaining"}},
  "note": "“Also recorded” adds a separate entry of the source.",
  "data": [
    {"compound": "CC(=O)Oc1c(OC(C)=O)c2c(C)coc2c2ccc3c(c12)CCCC3(C)C", "note": "[ATA, 1,6,6-trimethyl-8,9-dihydro-10,11-diacetoxyl-7H-naphtho[1,2-g][1]benzofuran]", "values": [
      {"measurement": "CC50", "setting": "MDA-MB-435", "value": "2740 ± 510", "unit": "nM"},
      {"measurement": "IC50", "setting": "MDA-MB-435", "value": "550 ± 150", "unit": "nM"},
      {"measurement": "CC50 at 48 h", "setting": "[1]", "value": "16300 ± 4460", "unit": "nM"},
      {"measurement": "IC50", "setting": "MCF-10A", "value": 6640, "unit": "nM"},
      {"measurement": "IC50", "setting": "T47D; Homo sapiens", "value": "1400 ± 200", "unit": "nM"},
      {"measurement": "IC50 ratio of tamoxifen/ATA", "setting": "T47D", "value": 6.7},
      {"measurement": "IC50", "setting": "MCF-7/HER2 cells; Homo sapiens, MCF7, MCF-7/HER2 cells, 72 h", "value": "1000 ± 230", "unit": "nM"},
      {"measurement": "sensitivity of MCF-7/HER2 cells compared with MCF-7 cells", "setting": "MCF-7/HER2 cells; paclitaxel 1×10^−3 μM to 10 μM, ATA 0.78 μM to 6.25 μM", "value": "higher sensitivity to ATA"},
      {"measurement": "ratio of Bax level in the cytosol to that in the mitochondria", "setting": "[2]", "value": "< 0.1"},
      {"measurement": "ratio of cytochrome c level in cytosol to that in mitochondria", "setting": "[2]", "value": 7.5},
      {"measurement": "viability at 5 µM", "setting": "MDA-MB-435 cells", "value": 35, "unit": "%"},
      {"measurement": "ERα protein level", "setting": "ERα in MCF-7 cells; 6 μM ATA, 24 and 48 h, normal medium, Western blot", "value": "significantly decreased"},
      {"measurement": "ERα fluorescence intensity in the cytosol", "setting": "ERα in MCF-7 cells; [5]", "value": "remained unchanged"},
      {"measurement": "level of ERα in the nucleus", "setting": "ERα in MCF-7 cells; [5]", "value": "greatly reduced"},
      {"measurement": "total protein level of ERα", "setting": "ERα in MCF-7 cells; 4 h, charcoal-stripped medium, Western blot", "value": "slightly reduced"},
      {"measurement": "total protein level of ERα", "setting": "ERα in MCF-7 cells; after 8 h, charcoal-stripped medium, Western blot", "value": "significantly reduced"},
      {"measurement": "level of HER2 protein", "setting": "[3]", "value": "can reduce the level of HER2 protein; also recorded: reduced the level of ERα and HER2"},
      {"measurement": "level of ESR1 mRNA over control", "setting": "ESR1 mRNA in MCF-7 cells; 12 h, charcoal-stripped medium", "value": 55, "unit": "%"},
      {"measurement": "level of ESR1 mRNA over control", "setting": "ESR1 mRNA in MCF-7 cells; 24 h, charcoal-stripped medium", "value": 31, "unit": "%"},
      {"measurement": "level of ESR1 mRNA over control", "setting": "ESR1 mRNA in MCF-7 cells; 24 h, normal medium", "value": "about 30%"},
      {"measurement": "level of ESR1 mRNA over control", "setting": "ESR1 mRNA in MCF-7 cells; 36 h and 48 h, charcoal-stripped medium", "value": "about 50%"},
      {"measurement": "GREB1 mRNA level, fold of the control", "setting": "[4]; 4 h", "value": 6.4, "unit": "fold"},
      {"measurement": "GREB1 mRNA level, fold of the control", "setting": "[4]; 12 h", "value": 7.9, "unit": "fold"},
      {"measurement": "GREB1 level of the control", "setting": "[4]; 100 pM estrogen plus 6 μM compound, 24 h, normal medium", "value": "about 50%"}
    ]}
  ]
}
